Where a name gives a salt, the structure may show the parent alone.
Legend:
[1] = test system: patients undergoing elective arthroscopic shoulder surgery; assay: Example 1 / Study 1: pain intensity and opioid rescue after arthroscopic shoulder surgery; type: in vivo, human; conditions: ITT, HCl
[2] = test system: patients, abdominal surgeries; assay: Adverse reactions pooled from laparoscopic, laparoscopically-assisted and open abdominal surgery studies; type: in vivo, human; conditions: adjusted percentage
[3] = test system: patients undergoing total abdominal hysterectomy; assay: Adverse reactions, total abdominal hysterectomy study; type: in vivo, human; conditions: Formulation A N = 60; Bupivacaine HCl N = 27
Description: In a study of patients undergoing total abdominal hysterectomy, Formulation A, vehicle placebo, or bupivacaine HCl was administered into the surgical incision at the end of surgery.

pregnant rats = conditions: rat, in vivo
Description: (§1) Bupivacaine hydrochloride was administered subcutaneously to rats at doses of 4.4, 13.3, & 40 mg/kg and to rabbits at doses of 1.3, 5.8, & 22.2 mg/kg during the period of organogenesis (implantation to closure of the hard palate). The high doses are approximately 0.6 times the daily maximum recommended human dose (MRHD) of 660 mg/day on a mg/m^2 body surface area (BSA) basis.

pregnant rabbits = assay: Embryo-fetal development study, subcutaneous, rabbits; type: in vivo
Description: (§2) There are no studies conducted with Formulation A in pregnant women. […] Based on animal data, advise pregnant women of the potential risks to a fetus. [see Data]
as §1

rats = assay: Rat pre- and post-natal development study; type: in vivo; conditions: 40 mg/kg subcutaneous, implantation through weaning
Description: as §2
The high dose is approximately 0.6 times the daily MRHD of 660 mg/day on a BSA basis.

[4] = test system: patients undergoing a variety of general surgical procedures; assay: Example 18: safety, Holter monitoring; type: in vivo, human
Source text: Patient safety was carefully monitored throughout the trial with traditional assessments of AEs, vital signs, routine laboratory testing, and Holter monitoring (i.e., continuous recording of electrocardiogram) for 3 days after dosing. Special attention was given to cardiovascular and neurological AE, as bupivacaine toxic effects are manifest in those two body systems. In addition, special assessments were done to monitor surgical wound condition and healing over the 30 days of the trial. There were no consistent treatment-related effects on vital signs. Changes in serum chemistry and hematological parameters were those expected after major surgery, with few consistent differences between treatment groups. Cardiac safety was carefully studied using Holter monitoring for 72 hours post-dose, starting about one hour before surgery. In addition, baseline 24-hour ambulatory Holter monitoring was done after the screening visit.

## CCCCN1CCCCC1C(=O)Nc1c(C)cccc1C (stereo not shown) [Bupivacaine HCl]
[1]; 0-72 hours after surgery
  Total IV morphine equivalent dose of opioid rescue medication, median: 8.0 mg
[1]; Kaplan-Meier
  Time to first use of opioid rescue medication, median (95% CI): 1.4 (1.0, 4.1) hours
[2]
  Adverse reaction: Abdominal distension: (4.8%)
  Adverse reaction: Abdominal pain: (0.5%)
  Adverse reaction: Abdominal pain upper: (1.0%)
  Adverse reaction: Anemia: (0.7%)
  Adverse reaction: Body temperature increased: 0%
  Adverse reaction: Chest pain: (0.5%)
  Adverse reaction: Constipation: (41.8%)
  Adverse reaction: Cough: (1.8%)
  Adverse reaction: Diarrhea: (5.5%)
  Adverse reaction: Dizziness: (30.1%)
  Adverse reaction: Dry mouth: (1.0%)
  Adverse reaction: Dysgeusia: (16.9%)
  Adverse reaction: Dyspepsia: (1.9%)
  Adverse reaction: Flatulence: (4.0%)
  Adverse reaction: Headache: (32.3%)
  Adverse reaction: Hypertension: (3.6%)
  Adverse reaction: Hypokalemia: (1.4%)
  Adverse reaction: Ileus: (0.7%)
  Adverse reaction: Incision site erythema: (2.7%)
  Adverse reaction: Incision site hematoma: (1.7%)
  Adverse reaction: Incision site hemorrhage: (3.0%)
  Adverse reaction: Incision site infection: (2.5%)
  Adverse reaction: Insomnia: (2.9%)
  Adverse reaction: Musculoskeletal pain: (4.9%)
  Adverse reaction: Nasopharyngitis: 0%
  Adverse reaction: Nausea: (59.6%)
  Adverse reaction: Oropharyngeal pain: (1.0%)
  Adverse reaction: Pain in extremity: (2.8%)
  Adverse reaction: Paresthesia: (13.1%)
  Adverse reaction: Post procedural contusion (bruising): (61.8%)
  Adverse reaction: Post procedural discharge: (4.4%)
  Adverse reaction: Procedural pain: (17.8%)
  Adverse reaction: Pruritus: (18.7%)
  Adverse reaction: Pyrexia: (5.7%)
  Adverse reaction: Rash: (3.8%)
  Adverse reaction: Somnolence: (41.0%)
  Adverse reaction: Urinary retention: (1.2%)
  Adverse reaction: Vomiting: (21.0%)
  Adverse reaction: Wound dehiscence: (1.5%)
[3]
  Anemia, (%): (11.1%)
  C-reactive protein increased, (%): (3.7%)
  Dizziness, (%): (14.8%)
  Hypertension, (%): (7.4%)
  Pyrexia, (%): (25.9%)
  Somnolence, (%): (7.4%)
  Vomiting, (%): (14.8%)
Pregnant rats
  Embryo-fetal effects at the high dose: No embryo-fetal effects were observed
Pregnant rabbits; 22.2 mg/kg subcutaneous, organogenesis, rabbits
  Embryo-fetal deaths at the high dose: An increase in embryo-fetal deaths was observed
Pregnant rabbits; female, rabbit, in vivo
  Fetal No Observed Adverse Effect Level: approximately 0.2 times the MRHD
rats
  Pup survival at the high dose: decreased pup survival was observed
[4]; Cohort 1, % of subjects
  At Least One Cardiovascular TEAE: (39%)
  At Least One Neurological TEAE: (22%)
  At Least One Non-Opioid TEAE: (94%)
  At Least One Serious TEAE: (22%)
  At Least One TEAE: (94%)
  At Least One Wound Infection TEAE: (11%)
  Maximum Relationship to Study Drug: Not Related: (72%)
  Maximum Relationship to Study Drug: Related: (22%)
  Maximum Severity: Mild: (11%)
  Maximum Severity: Moderate: (61%)
  Maximum Severity: Severe: (22%)
[4]; Cohort 1, number of subjects
  At Least One Cardiovascular TEAE: 7
  At Least One Neurological TEAE: 4
  At Least One Non-Opioid TEAE: 17
  At Least One Serious TEAE: 4
  At Least One Serious and Related TEAE: 0
  At Least One Severe and Related TEAE: 0
  At Least One TEAE: 17
  At Least One TEAE Leading to Study Discontinuation: 0
  At Least One Wound Infection TEAE: 2
  Deaths: 0
  Maximum Relationship to Study Drug: Not Related: 13
  Maximum Relationship to Study Drug: Related: 4
  Maximum Severity: Mild: 2
  Maximum Severity: Moderate: 11
  Maximum Severity: Severe: 4
[4]; Cohort 2, % of subjects
  At Least One Cardiovascular TEAE: (10%)
  At Least One Neurological TEAE: (50%)
  At Least One Non-Opioid TEAE: (95%)
  At Least One Serious TEAE: (5%)
  At Least One Severe and Related TEAE: (5%)
  At Least One TEAE: (100%)
  At Least One TEAE Leading to Study Discontinuation: (5%)
  At Least One Wound Infection TEAE: (5%)
  Maximum Relationship to Study Drug: Not Related: (50%)
  Maximum Relationship to Study Drug: Related: (50%)
  Maximum Severity: Mild: (10%)
  Maximum Severity: Moderate: (65%)
  Maximum Severity: Severe: (25%)
[4]; Cohort 2, number of subjects
  At Least One Cardiovascular TEAE: 2
  At Least One Neurological TEAE: 10
  At Least One Non-Opioid TEAE: 19
  At Least One Serious TEAE: 1
  At Least One Serious and Related TEAE: 0
  At Least One Severe and Related TEAE: 1
  At Least One TEAE: 20
  At Least One TEAE Leading to Study Discontinuation: 1
  At Least One Wound Infection TEAE: 1
  Deaths: 0
  Maximum Relationship to Study Drug: Not Related: 10
  Maximum Relationship to Study Drug: Related: 10
  Maximum Severity: Mild: 2
  Maximum Severity: Moderate: 13
  Maximum Severity: Severe: 5
